Experimental data published in US4005217A, “Treatment of helminth infections with substituted phenyl-thiourea derivatives” (May & Baker Limited, priority 1970, dated 1977).
≈ marks a conversion by molar mass, not a printed value. Where a name gives a salt, the structure may show the parent alone.

How the values were obtained:
[1] = system: Nippostrongylus brasiliensis eggs; experiment: In vitro activity against roundworms (egg hatching and larvae); assay type: cell-based; conditions: 96 h, tested at 100, 10, 1 and 0.1 μg/ml, inhibited or delayed hatching of eggs, or killed, retarded growth or reduced activity of larvae during 4 days, read-out: M.I.C. (minimum inhibitory concentration)
Method: Compounds of formula I were tested at concentrations of 100 μg/ml, 10 μg/ml, 1 μg/ml and 0.1 μg/ml in small glass containers. If the compound was not soluble in water, a volatile organic medium, e.g. acetone, chloroform, ethanol or methanol was used. An amount of material appropriate for each final concentration was measured and placed in duplicate test containers and if an organic solvent was used it was allowed to evaporate completely. Nippostrongylus brasiliensis eggs were recovered by saturated saline centrifugal flotation from the faeces of rats heavily infected with third stage larvae six days previously. They were washed several times in water and suspended in water in a suitable concentration. From 25-50 eggs were placed in each container and the final volume was made up by the addition of a very dilute aqueous suspension of mouse faeces which served as the growth medium. The minimum inhibitory concentrations of each compound (M.I.C.), shown in the following Table V was the minimum concentration in μg/ml total liquid volume at which it inhibited or delayed hatching of eggs, or at which it killed, retarded growth or reduced activity of larvae during the 4 days after beginning the test.

[2] = system: Nippostrongylus brasiliensis; experiment: Test 2: activity against roundworms in rats, treatment 24 hours after infection, worm counts 6 days after dosing; assay type: in vivo; conditions: rats; for inhibition in vivo at 1000 mg/kg / worm damage: Test 2, 1000 mg/kg oral
Method: Test 2 -- Rats were infected with 100 Nippostrongylus brasiliensis larvae each, by the subcutaneous route. After 24 hours the rats were randomised and allotted to groups of 5 animals each, ready for treatment. Doses of the test compound were then administered to each group by the oral, subcutaneous and intraperitoneal routes respectively, one group of 10 animals being left untreated as a control. All the rats were killed for post-mortem worm counts 6 days after dosing. The activities, expressed in terms of the percentage reductions in mean worm load of the treated groups or damage to the worms compared with the untreated control group, are given below in Table I.

[3] = system: influenza virus type A2 /Hong Kong/5/68; assay type: in vivo; conditions: mice, 250 mg/kg oral 3 hours before and 1 hour after infection; pooled lungs 24 hours after infection; greatest dilution producing agglutination
[4] = system: Nippostrongylus brasiliensis; experiment: Test 1: activity against roundworms in rats, treatment 6 days after infection (patent infection), worm counts 48 hours after treatment; assay type: in vivo
Method: Test 1 - Rats were infected with 100 Nippostrongylus brasiliensis larvae each, by the subcutaneous route. After 6 days, when the infection was patent, the rats were randomised and alloted to groups of 10 animals each, ready for treatment. One group was used for each dose level of the test compound and, in each experiment, one group was left untreated as a control. All the rats were killed for post-mortem worm counts 48 hours after treatment. The activity, expressed in terms of the percentage reduction in mean worm load of the treated group compared with the untreated group, is shown in Table I.

Trichostrongylus axei [5] = experiment: Activity against 4th larval stages in lambs, oral treatment (Table II); assay type: in vivo; conditions: 100 mg/kg oral
Method: (§1) i. 9 Worm-free lambs were each infected with H.contortus (approximately 9,000), T. axei (approximately 7,000) and T. colubriformis (approximately 12,000) infective larvae. After 7 days, 4 lambs were treated orally with 100 mg/kg animal body weight of the 2 test compounds, i.e. 2 lambs per compound, against the 4th larval stages of the worms. 23 Days after infection, all 9 lambs were killed for post-mortem worm counts and the burdens of each worm species in the 4 treated animals compared with those in the remaining 5 untreated control animals.

[6] = system: Trichostrongylus colubriformis; experiment: as above; assay type: in vivo; conditions: 100 mg/kg oral
Method: as §1

Haemonchus contortus [7] = experiment: as above; assay type: in vivo; conditions: 100 mg/kg oral
Method: as §1

Trichostrongylus axei [8] = experiment: Activity against mature adult stages in lambs, oral treatment (Table III); assay type: in vivo; conditions: 120 h, 15 mg/kg oral, read-out: Mean percentage reduction in worm burdens, T.axei
Method: (§2) ii. 20 Worm-free lambs were each infected with H. contortus (approximately 5,600), T. axei (approximately 9,300) and T. colubriformis (approximately 10,000) infective larvae. After 22 days, 16 lambs were treated orally with 15 mg/kg animal body weight of the 8 test compounds, i.e. 2 lambs per compound, against the mature adult stages of the worms. 27 Days after infection, all 20 lambs were killed for post-mortem worm counts and the burden of each worm species in the 16 treated animals compared with those in the remaining 4 untreated control animals.

[9] = system: Trichostrongylus colubriformis; experiment: as above; assay type: in vivo; conditions: 120 h, 15 mg/kg oral, read-out: Mean percentage reduction in worm burdens, T.colubriformis
Method: as §2

Haemonchus contortus [10] = experiment: as above; assay type: in vivo; conditions: 120 h, 15 mg/kg oral, read-out: Mean percentage reduction in worm burdens, H.contortus
Method: as §2

[11] = system: naturally acquired strongyle infections; experiment: Effect on faecal egg output in naturally infected sheep (ewes); assay type: in vivo, O. circumcincta, H. contortus and Cooperia spp.; conditions: 50 mg/kg oral
Method: Faecal material from sheep with naturally acquired strongyle infections was incubated for 7 days at 27° C. followed by identification of the infective larvae present. Amongst those species present were O. circumcincta, H. contortus and Cooperia spp.
Egg counts were carried out on individual samples of faeces taken from the animals two and one day previous to dosings.
Egg counts were made using the McMaster technique. If a count by this technique was negative, a positive/negative egg flotation determination was made.
A group of 3 ewes was treated orally with 50 mg/kg animal body weight of test compound and further egg counts made at intervals for 3 weeks after treatment.

[12] = Nippostrongylus brasiliensis, 144 h, read-out: Percentage reduction in N.brasiliensis load
[13] = Nippostrongylus brasiliensis, po, 48 h, Test 1, 1000 mg/kg oral, read-out: Percentage reduction in N.brasiliensis load

Structure (SMILES) | MIC [1] [µg/mL] | inhibition in vivo at 1000 mg/kg [2, 12] [%] | worm damage [2] | Haemagglutinin titre-treated animals [3] | inhibition in vivo at 15 mg/kg (Trichostrongylus axei [8]) [%] | inhibition in vivo at 15 mg/kg [9] [%] | inhibition in vivo at 15 mg/kg (Haemonchus contortus [10]) [%] | other results
CCOC(=O)NC(=S)Nc1ccc(F)cc1N [1-ethoxycarbonyl-3-(2-amino-4-fluorophenyl)thiourea] | 1 (≈ 3.89 µM) | 50 | worm damage | 1/32 |  |  |  | 
CCCCc1ccc(NC(=O)C2CC2)c(NC(=S)NC(=O)OC)c1 [1-methoxycarbonyl-3-(2-cyclopropylcarbonamido-5-n-butylphenyl)thiourea] | 0.1 (≈ 0.286 µM) |  |  | 1/128 |  |  |  | 
CCCCc1ccc(NC(=S)NC(=O)OC)c(N)c1 [1-methoxycarbonyl-3-(2-amino-4-n-butylphenyl)thiourea] | 0.1 (≈ 0.355 µM) |  |  |  |  |  |  | inhibition in vivo at 500 mg/kg ([4]; Nippostrongylus brasiliensis, po, 48 h, Test 1, 500 mg/kg oral, read-out: Percentage reduction in N.brasiliensis load): 75%; worm damage ([4]; Test 1, 500 mg/kg oral): worm damage; Mean percentage reduction in worm burdens, T.axei (Trichostrongylus axei [5]): 99.5%; Mean percentage reduction in worm burdens, T.colubriformis [6]: 100%; Mean percentage reduction in worm burdens, H.contortus (Haemonchus contortus [7]): 100%
CCCCc1ccc(NC(=S)NC(=O)OC)c(NC(C)=O)c1 [1-methoxycarbonyl-3-(2-acetamido-4-n-butylphenyl)thiourea] | 0.1 (≈ 0.309 µM) | 98 | worm damage |  | 66.9 | 6.7 | 76.7 | worm damage ([4]; Test 1, 500 mg/kg oral): worm damage; Mean percentage reduction in worm burdens, T.axei (Trichostrongylus axei [5]): 99.5%; Mean percentage reduction in worm burdens, T.colubriformis [6]: 100%; Mean percentage reduction in worm burdens, H.contortus (Haemonchus contortus [7]): 99.9%
CCCCc1ccc(NC(=O)OCC)c(NC(=S)NC(=O)OC)c1 [1-methoxycarbonyl-3-(5-n-butyl-2-ethoxycarbonylaminophenyl)thiourea] | 10 (≈ 28.3 µM) | 96 | worm damage | 1/64 | 78.6 | 40.1 | 79.6 | 
COC(=O)NC(=S)Nc1ccccc1N [1-methoxycarbonyl-3-(2-aminophenyl)thiourea] | 0.1 (≈ 0.444 µM) |  |  |  |  |  |  | Percentage reduction in N.brasiliensis load ([4]; Test 1, 1000 mg/kg oral): 99%; worm damage ([4]; Test 1, 1000 mg/kg oral): worm damage; Mean faecal egg count/gm. faeces ([11]; 1 day after treatment): 450 /gm. faeces; Mean faecal egg count/gm. faeces ([11]; 2 days before treatment (baseline)): 250 /gm. faeces; Mean faecal egg count/gm. faeces ([11]; 4 days after treatment): 250 /gm. faeces; Mean faecal egg count/gm. faeces ([11]; 6 days after treatment): 50 /gm. faeces; Mean faecal egg count/gm. faeces ([11]; 8 days after treatment): 134 /gm. faeces; Mean faecal egg count/gm. faeces ([11]; 15 days after treatment): 75 /gm. faeces; Mean faecal egg count/gm. faeces ([11]; 18 days after treatment): 100 /gm. faeces; Mean faecal egg count/gm. faeces ([11]; 20 days after treatment): 50 /gm. faeces; Mean faecal egg count/gm. faeces ([11]; 22 days after treatment): 50 /gm. faeces
Nc1ccccc1NC(=S)NC(=O)OCCCl [1-(2-chloroethoxycarbonyl)-3-(2-aminophenyl)thiourea] | 100 (≈ 365 µM) | 96 | worm damage | 1/32 |  |  |  | 
CCCCc1ccc(NC=O)c(NC(=S)NC(=O)OC)c1 [1-methoxycarbonyl-3-(5n-butyl-2-formamidophenyl)thiourea] | 0.1 (≈ 0.323 µM) | 96 | worm damage | 1/32 |  |  |  | 
CCCCc1ccc(NC(=S)NC(=O)OC)c(NC(=O)C2CC2)c1 [1-methoxycarbonyl-3-(4-n-butyl-2-cycloproplycarbonamidophenyl)thiourea] | 0.1 (≈ 0.286 µM) |  |  |  | 57.6 | 27.1 | 58.4 | 
COC(=O)NC(=S)Nc1ccc(NC(=O)OC)cc1N [1-methoxycarbonyl-3-(2-amino-4-methoxycarbonylaminophenyl)thiourea] | 100 (≈ 335 µM) | 100 |  | 1/512 |  |  |  | inhibition in vivo at 1000 mg/kg [4, 13]: 100%; inhibition in vivo at 250 mg/kg ([2]; Nippostrongylus brasiliensis, 144 h, Test 2, 250 mg/kg oral, read-out: Percentage reduction in N.brasiliensis load): 99%; inhibition in vivo at 500 mg/kg ([2]; Nippostrongylus brasiliensis, 144 h, Test 2, 500 mg/kg oral, read-out: Percentage reduction in N.brasiliensis load): 99%
COC(=O)NC(=S)Nc1cc(NC(=O)OC(C)C)ccc1NC=O [1-methoxycarbonyl-3-(2formamido-5-isopropoxycarbonylaminophenyl)thiourea] |  |  |  | 1/256 |  |  |  | 
COC(=O)NC(=S)Nc1ccc(NC(=O)OC(C)C)cc1N [1-methoxycarbonyl-3-(2-amino-4-isopropoxycarbonylaminophenyl)thiourea] | 100 (≈ 306 µM) | 100 |  |  | 94.6 | 83 | 97.7 | worm damage ([4]; Test 1, 500 mg/kg oral): worm damage
COC(=O)NC(=S)Nc1ccc(NC(=O)OC(C)C)cc1NC=O [1-methoxycarbonyl-3-(2-formamido-4-isopropoxycarbonylaminophenyl)thiourea] |  |  |  |  | 70.8 | 29.6 | 40.1 | 
CCCCN(C)CC(=O)Nc1ccccc1NC(=S)NC(=O)OCC [1-ethoxycarbonyl-3-(2-N-n-butyl-N-methylaminoacetamidophenyl)thiourea hydrochloride] | 1 | 99 | worm damage | 1/4 |  |  |  | inhibition in vivo at 1000 mg/kg [4, 13]: 86%; worm damage ([4]; Test 1, 1000 mg/kg oral): worm damage
COC(=O)NC(=S)Nc1ccccc1NC(=O)C[N+](C)(C)C [1-methoxycarbonyl-3-(2-trimethylammoniumacetamidophenyl)thiourea iodide] | 1 |  | worm damage | 1/256 |  |  |  | 
COC(=O)NC(=S)Nc1ccc(NC(=O)OC(C)C)cc1NC(C)=O [1-methoxycarbonyl-3-(2-acetamido-4-isopropoxycarbonylaminophenyl)thiourea] |  |  |  | 1/256 |  |  |  | 
CCCCc1ccc(NC(C)=O)c(NC(=S)NC(=O)OC)c1 [1-methoxycarbonyl-3-(2-acetamido-5-n-butylphenyl)thiourea] | 0.1 (≈ 0.309 µM) | 99 | worm damage |  | 98.2 | 95 | 82.1 | worm damage ([4]; Test 1, 1000 mg/kg oral): worm damage
CCCCc1ccc(NC(=S)NC(=O)OC)c(NC=O)c1 [1-methoxycarbonyl-3-(4-n-butyl-2-formamidophenyl)thiourea] | 0.1 (≈ 0.323 µM) |  |  |  | 84.2 | 36.9 | 84.3 | 
